Article PMC4402537, “mRNA maturation in giant viruses: variation on a theme” (Nucleic Acids Research, 2015)

Key:
R341 (H6c-R341) = biological target: T1, R341 (H6c-R341) (Acanthamoeba polyphaga mimivirus, UniProt Q5UQS6); settings: 100 μM ATP, 5 mM MgCl2 or 0.5 mM MnCl2, pH 7.5, 30°C
T1 construct: gene MIMI_R341

Mg561 (H6c-Mg561) [1] = biological target: T2, Mg561 (H6c-Mg561) (Megavirus chiliensis, UniProt G5CT11); experiment: in vitro polyadenylation of […]-labelled 20-mer RNA, urea-PAGE; type: biochemical; settings: 100 μM ATP, 5 mM MgCl2 or 0.5 mM MnCl2, pH 7.5, 30°C
T2 construct: gene mchi_555; full length, N-terminal His6 tag removed by HRV 3C protease; E. coli Rosetta (DE3)
T2 sequence (G5CT11 1-531): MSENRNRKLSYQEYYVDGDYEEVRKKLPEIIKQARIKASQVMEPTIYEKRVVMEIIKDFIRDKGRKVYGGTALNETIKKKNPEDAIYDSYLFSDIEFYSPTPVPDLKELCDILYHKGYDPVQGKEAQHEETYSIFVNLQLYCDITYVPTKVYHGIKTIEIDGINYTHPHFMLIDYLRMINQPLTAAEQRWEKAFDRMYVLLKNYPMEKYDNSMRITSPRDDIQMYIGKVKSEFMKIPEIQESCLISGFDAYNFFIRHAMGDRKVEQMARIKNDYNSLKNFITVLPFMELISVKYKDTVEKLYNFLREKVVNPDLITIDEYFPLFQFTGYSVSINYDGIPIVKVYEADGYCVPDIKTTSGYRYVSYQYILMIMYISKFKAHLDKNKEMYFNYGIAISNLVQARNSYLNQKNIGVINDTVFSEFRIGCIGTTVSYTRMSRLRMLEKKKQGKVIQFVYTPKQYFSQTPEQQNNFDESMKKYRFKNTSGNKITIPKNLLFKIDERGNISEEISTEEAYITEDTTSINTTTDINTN

[2] = biological target: Mimivirus polyA polymerase R341, after tag removal (H6c-R341) (Mimivirus); experiment: SEC; gel filtration of purified proteins, GE Healthcare markers for calibration
Mg18 (H6c+Mg18) = biological target: T3, Mg18 (H6c+Mg18) (Megavirus chiliensis, UniProt G5CQI9); experiment: methyl transfer from 3H-AdoMet to RNA, DEAE filter binding; type: biochemical; settings: 10 μM AdoMet, GpppAN13, 7MeGpppAN13 or poly(A) RNA 0.7 μM, 1 mM MgCl2, pH 7.5, 30°C; labelled compound
T3 construct: gene mchi_21; full length, N-terminal His6 tag kept; E. coli Rosetta (DE3)
T3 sequence (G5CQI9 1-340): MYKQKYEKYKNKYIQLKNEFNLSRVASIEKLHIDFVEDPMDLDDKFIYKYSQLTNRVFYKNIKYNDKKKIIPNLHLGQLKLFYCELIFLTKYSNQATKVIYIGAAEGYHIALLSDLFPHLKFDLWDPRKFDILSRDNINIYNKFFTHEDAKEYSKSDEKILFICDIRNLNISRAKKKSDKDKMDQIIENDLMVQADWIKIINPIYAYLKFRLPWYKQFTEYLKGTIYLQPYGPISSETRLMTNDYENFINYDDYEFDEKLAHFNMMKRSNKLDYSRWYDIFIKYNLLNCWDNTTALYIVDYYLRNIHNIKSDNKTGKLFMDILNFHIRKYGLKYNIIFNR

[3] = biological target: Megavirus chilensis polyA polymerase Mg561, after tag removal (H6c-Mg561) (Megavirus chilensis); experiment: SEC; gel filtration of purified proteins, GE Healthcare markers for calibration
[4] = biological target: Megavirus chilensis Mg18 protein with N-terminal His6 tag (H6c+Mg18) (Megavirus chilensis); experiment: BLI
Mg561 (H6c-Mg561) [5] = biological target: T2, Mg561 (H6c-Mg561); experiment: in vitro polyU tailing of […]-labelled 20-mer RNA, urea-PAGE; type: biochemical; settings: 100 μM UTP in place of ATP, Mn2+ (similar with Mg2+), pH 7.5, 30°C

Nc1ncnc2c1ncn2[C@@H]1O[C@H](COP(=O)(O)OP(=O)(O)OP(=O)(O)O)[C@@H](O)[C@H]1O [ATP]
in vitro polyadenylation of 32P-labelled 20-mer RNA, urea-PAGE (R341 (H6c-R341)): synthesize long products, apparently proccessively, derived from the RNA and ATP | in vitro polyadenylation of 32P-labelled 20-mer RNA, urea-PAGE (Mg561 (H6c-Mg561) [1]): synthesize long products, apparently proccessively, derived from the RNA and ATP

Mimivirus polyA polymerase R341, after tag removal (H6c-R341) (enzyme)
stoichiometry N [2]: 2

C[S+](CC[C@H](N)C(=O)O)C[C@H]1O[C@@H](n2cnc3c(N)ncnc32)[C@H](O)[C@@H]1O (stereo partly shown) [AdoMet]
methyl transfer from 3H-AdoMet to RNA, DEAE filter binding (Mg18 (H6c+Mg18)): Mg18 had comparable activity with 7MeGpppAN13 and GpppAN13

Megavirus chilensis polyA polymerase Mg561, after tag removal (H6c-Mg561) (enzyme)
stoichiometry N [3]: 2 | Kd [4]: 6.2 µM

O=c1ccn([C@@H]2O[C@H](COP(=O)(O)OP(=O)(O)OP(=O)(O)O)[C@@H](O)[C@H]2O)c(=O)[nH]1 [UTP]
in vitro polyU tailing of 32P-labelled 20-mer RNA, urea-PAGE (Mg561 (H6c-Mg561) [5]): Mg561 was also able to add long polyU tails, although with a reduced activity
